# In US20260042731A1, “(2,4-DICHLOROPHENOXY)ACETIC ACID ANALOGS” (CORTEVA AGRISCIENCE LLC, priority 2022, published 2026):
# Read-outs that look alike come from different tables or passages of the source.
# Key:
# [1] = test system: Amaranthus rudis (AMATA), tall water hemp; assay: Postemergence herbicide evaluation, growth of Amaranthus rudis (AMATA); format: in vivo; details: Amaranthus tuberculatus, post-emergence, percent reduction in plant size vs untreated control, read-out: Ave. AMATA; for pest or weed control at 280 g/ha: 280 g ae/ha; for pest or weed control at 560 g/ha: 560 g ae/ha
# [2] = test system: Ambrosia artemisiifolia (AMBEL), common ragweed; assay: Postemergence herbicide evaluation, growth of Ambrosia artemisiifolia (AMBEL); format: in vivo; details: Ambrosia artemisiifolia, post-emergence, percent reduction in plant size vs untreated control, read-out: AVE. AMBEL; for pest or weed control at 280 g/ha: 280 g ae/ha; for pest or weed control at 560 g/ha: 560 g ae/ha
# [3] = test system: Abutilon theophrasti (ABUTH), velvetleaf; assay: Postemergence herbicide evaluation, growth of Abutilon theophrasti (ABUTH); format: in vivo; details: Abutilon theophrasti, post-emergence, percent reduction in plant size vs untreated control, read-out: AVE. ABUTH; for pest or weed control at 280 g/ha: 280 g ae/ha; for pest or weed control at 560 g/ha: 560 g ae/ha
# [4] = test system: Chenopodium album (CHEAL), common lambsquarters; assay: Postemergence herbicide evaluation, growth of Chenopodium album (CHEAL); format: in vivo; details: Chenopodium album, post-emergence, percent reduction in plant size vs untreated control, read-out: Ave. CHEAL; for pest or weed control at 280 g/ha: 280 g ae/ha; for pest or weed control at 560 g/ha: 560 g ae/ha
# [5] = test system: glyphosate resistant Conyza canadensis (L.) (ERICA), horseweed; assay: Postemergence herbicide evaluation, growth of Conyza canadensis (ERICA); format: in vivo; details: Erigeron canadensis, post-emergence, percent reduction in plant size vs untreated control, read-out: Ave. ERICA; for pest or weed control at 280 g/ha: 280 g ae/ha; for pest or weed control at 560 g/ha: 560 g ae/ha
# [6] = Volatility of compounds measured by thermogravimetric analysis (TGA); format: physicochemical
# Corn (ZEAMX) = assay: Greenhouse post-emergence mixture trials, percent visual control; format: in vivo; details: ZEAMX, 21 DAA, no mixing partner; for % Control / plant injury at 560 g/ha: compound 560 g ae/ha
# [7] = test system: Common Lambsquarters (CHEAL); assay: as above; format: in vivo; details: CHEAL, 21 DAA; for pest or weed control at 560 g/ha / pest or weed control at 1120 g/ha: Chenopodium album, post-emergence, 504 h, no mixing partner; for pest or weed control at 1120 g/ha: read-out: % Control
# Velvetleaf (ABUTH) = assay: as above; format: in vivo; details: ABUTH, 21 DAA; for pest or weed control at 560 g/ha / pest or weed control at 1120 g/ha: Abutilon theophrasti, post-emergence, 504 h; for pest or weed control at 560 g/ha: compound 560 g ae/ha; for pest or weed control at 1120 g/ha: compound 1120 g ae/ha, read-out: % Control
# [8] = test system: weeds ABUTH, AMATA, AMBEL, CHEAL, ERICA; assay: Postemergence herbicide evaluation, overall average % weed control across ABUTH, AMATA, AMBEL, CHEAL and ERICA; format: in vivo; details: post-emergence, average over five weeds, read-out: Overall Ave % Weed Control; for pest or weed control at 280 g/ha: 280 g ae/ha; for pest or weed control at 560 g/ha: 560 g ae/ha
# [9] = Trial Bridge 2, compound 560 g ae/ha + Saflufenacil 25 g ai or ae/ha
# [10] = Trial Bridge 2, compound 560 g ae/ha + Saflufenacil 75 g ai or ae/ha
# [11] = Trial Bridge 2, compound 560 g ae/ha + Trifludimoxazin 12.5 g ai or ae/ha
# [12] = Trial Bridge 2, compound 560 g ae/ha + Trifludimoxazin 50 g ai or ae/ha
# [13] = Trial Bridge 2, compound 1120 g ae/ha + Saflufenacil 25 g ai or ae/ha
# [14] = Trial Bridge 2, compound 1120 g ae/ha + Saflufenacil 75 g ai or ae/ha
# [15] = Trial Bridge 2, compound 1120 g ae/ha + Trifludimoxazin 12.5 g ai or ae/ha
# [16] = Trial Bridge 2, compound 1120 g ae/ha + Trifludimoxazin 50 g ai or ae/ha
# [17] = Trial Bridge 1, compound 560 g ae/ha + Arylex 5 g ai or ae/ha
# [18] = Trial Bridge 1, compound 560 g ae/ha + Mesotrione 150 g ai or ae/ha
# [19] = Trial Bridge 1, compound 1120 g ae/ha + Arylex 5 g ai or ae/ha
# [20] = Trial Bridge 1, compound 1120 g ae/ha + Glufosinate 600 g ai or ae/ha
# [21] = Trial Bridge 1, compound 1120 g ae/ha + Mesotrione 150 g ai or ae/ha
# [22] = no mixing partner, Trial Bridge 3
# [23] = Trial Bridge 1, mixing partner none
# [24] = Trial Bridge 2, no mixing partner
structure (smiles),measurement,setting,value
O=C(COc1ccc(Cl)cc1Cl)Nc1cccnc1 [Compound D27],pest or weed control at 280 g/ha,"[1]; 168 h, 7 DAA",80%
same,pest or weed control at 560 g/ha,"[1]; 168 h, 7 DAA",92%
same,pest or weed control at 280 g/ha,"[1]; 336 h, 14 DAA",92.5%
same,pest or weed control at 560 g/ha,"[1]; 336 h, 14 DAA",90%
same,pest or weed control at 280 g/ha,"[1]; 504 h, 21 DAA",85%
same,pest or weed control at 560 g/ha,"[1]; 504 h, 21 DAA",100%
same,pest or weed control at 280 g/ha,"[2]; 168 h, 7 DAA",85%
same,pest or weed control at 560 g/ha,"[2]; 168 h, 7 DAA",85%
same,pest or weed control at 280 g/ha,"[2]; 336 h, 14 DAA",77.5%
same,pest or weed control at 560 g/ha,"[2]; 336 h, 14 DAA",99%
same,pest or weed control at 280 g/ha,"[2]; 504 h, 21 DAA",100%
same,pest or weed control at 560 g/ha,"[2]; 504 h, 21 DAA",100%
same,pest or weed control at 280 g/ha,"[3]; 168 h, 7 DAA",75%
same,pest or weed control at 560 g/ha,"[3]; 168 h, 7 DAA",80%
same,pest or weed control at 280 g/ha,"[3]; 336 h, 14 DAA",81.5%
same,pest or weed control at 560 g/ha,"[3]; 336 h, 14 DAA",98.5%
same,pest or weed control at 280 g/ha,"[3]; 504 h, 21 DAA",97%
same,pest or weed control at 560 g/ha,"[3]; 504 h, 21 DAA",100%
same,pest or weed control at 280 g/ha,"[4]; 168 h, 7 DAA",82.5%
same,pest or weed control at 560 g/ha,"[4]; 168 h, 7 DAA",80%
same,pest or weed control at 280 g/ha,"[4]; 336 h, 14 DAA",85%
same,pest or weed control at 560 g/ha,"[4]; 336 h, 14 DAA",97.5%
same,pest or weed control at 280 g/ha,"[4]; 504 h, 21 DAA",94%
same,pest or weed control at 560 g/ha,"[4]; 504 h, 21 DAA",97.5%
same,pest or weed control at 280 g/ha,"[5]; 168 h, 7 DAA",67.5%
same,pest or weed control at 560 g/ha,"[5]; 168 h, 7 DAA",85%
same,pest or weed control at 280 g/ha,"[5]; 336 h, 14 DAA",100%
same,pest or weed control at 560 g/ha,"[5]; 336 h, 14 DAA",100%
same,pest or weed control at 280 g/ha,"[5]; 504 h, 21 DAA",98.5%
same,pest or weed control at 560 g/ha,"[5]; 504 h, 21 DAA",99%
same,"TGA Data (rate of weight loss, volatility)",[6],0.01 µg/min
same,% Control,Corn (ZEAMX); Trial Bridge 1,5%
same,% Control,Corn (ZEAMX); Trial Bridge 3,5%
same,plant injury at 560 g/ha,"Corn (ZEAMX); Zea mays, post-emergence, 504 h, Trial Bridge 1",5%
same,plant injury at 560 g/ha,"Corn (ZEAMX); Zea mays, post-emergence, 504 h, Trial Bridge 3",5%
same,plant injury at 1120 g/ha,"Corn (ZEAMX); Zea mays, post-emergence, 504 h, compound 1120 g ae/ha, Trial Bridge 3",5%
same,% Control,[7]; [9],100%
same,% Control,[7]; [10],100%
same,% Control,[7]; [11],100%
same,% Control,[7]; [12],100%
same,% Control,[7]; [13],100%
same,% Control,[7]; [14],100%
same,% Control,[7]; [15],100%
same,% Control,[7]; [16],100%
same,% Control,"[7]; Trial Bridge 3, compound 560 g ae/ha + Sulfentrazone 130 g ai/ha",100%
same,% Control,"[7]; Trial Bridge 3, compound 560 g ae/ha + Sulfentrazone 347 g ai/ha",100%
same,% Control,"[7]; Trial Bridge 3, compound 1120 g ae/ha + Sulfentrazone 130 g ai/ha",100%
same,% Control,"[7]; Trial Bridge 3, compound 1120 g ae/ha + Sulfentrazone 347 g ai/ha",100%
same,pest or weed control at 560 g/ha,"[7]; Trial Bridge 2, compound 560 g ae/ha",95%
same,pest or weed control at 1120 g/ha,"[7]; Trial Bridge 2, compound 1120 g ae/ha",98%
same,pest or weed control at 560 g/ha,"[7]; Trial Bridge 3, compound 560 g ae/ha",95%
same,pest or weed control at 1120 g/ha,"[7]; Trial Bridge 3, compound 1120 g ae/ha",100%
same,pest or weed control at 560 g/ha,"[7]; Trial Bridge 1, compound 560 g ae/ha",98%
same,pest or weed control at 1120 g/ha,"[7]; Trial Bridge 1, compound 1120 g ae/ha",100%
same,% Control,[7]; [17],100%
same,% Control,[7]; [18],100%
same,% Control,[7]; [19],100%
same,% Control,[7]; [20],100%
same,% Control,[7]; [21],100%
same,% Control,"Velvetleaf (ABUTH); compound 560 g ae/ha + Sulfentrazone 347 g ai/ha, Trial Bridge 3",100%
same,% Control,"Velvetleaf (ABUTH); compound 1120 g ae/ha + Sulfentrazone 130 g ai/ha, Trial Bridge 3",100%
same,% Control,"Velvetleaf (ABUTH); compound 1120 g ae/ha + Sulfentrazone 347 g ai/ha, Trial Bridge 3",100%
same,pest or weed control at 560 g/ha,Velvetleaf (ABUTH); [22],100%
same,pest or weed control at 1120 g/ha,Velvetleaf (ABUTH); [22],99%
same,pest or weed control at 560 g/ha,Velvetleaf (ABUTH); [23],100%
same,pest or weed control at 1120 g/ha,Velvetleaf (ABUTH); [23],100%
same,pest or weed control at 560 g/ha,Velvetleaf (ABUTH); [24],100%
same,pest or weed control at 1120 g/ha,Velvetleaf (ABUTH); [24],100%
same,% Control,Velvetleaf (ABUTH); [17],100%
same,% Control,"Velvetleaf (ABUTH); Trial Bridge 1, compound 560 g ae/ha + Glufosinate 600 g ai or ae/ha",100%
same,% Control,"Velvetleaf (ABUTH); Trial Bridge 1, compound 560 g ae/ha + Glyphosate 1120 g ai or ae/ha",100%
same,% Control,Velvetleaf (ABUTH); [18],100%
same,% Control,"Velvetleaf (ABUTH); Trial Bridge 1, compound 560 g ae/ha + diclosulam 35 g ai or ae/ha",100%
same,% Control,Velvetleaf (ABUTH); [19],100%
same,% Control,Velvetleaf (ABUTH); [20],100%
same,% Control,"Velvetleaf (ABUTH); Trial Bridge 1, compound 1120 g ae/ha + Glyphosate 1120 g ai or ae/ha",100%
same,% Control,Velvetleaf (ABUTH); [21],100%
same,% Control,"Velvetleaf (ABUTH); Trial Bridge 1, compound 1120 g ae/ha + diclosulam 35 g ai or ae/ha",100%
same,% Control,Velvetleaf (ABUTH); [9],100%
same,% Control,Velvetleaf (ABUTH); [10],100%
same,% Control,Velvetleaf (ABUTH); [11],100%
same,% Control,Velvetleaf (ABUTH); [12],100%
same,% Control,Velvetleaf (ABUTH); [13],100%
same,% Control,Velvetleaf (ABUTH); [14],100%
same,% Control,Velvetleaf (ABUTH); [15],100%
same,% Control,Velvetleaf (ABUTH); [16],100%
same,pest or weed control at 280 g/ha,"[8]; 168 h, 7 DAA",78%
same,pest or weed control at 560 g/ha,"[8]; 168 h, 7 DAA",84.4%
same,pest or weed control at 280 g/ha,"[8]; 336 h, 14 DAA",87.3%
same,pest or weed control at 560 g/ha,"[8]; 336 h, 14 DAA",97%
same,pest or weed control at 280 g/ha,"[8]; 504 h, 21 DAA",94.9%
same,pest or weed control at 560 g/ha,"[8]; 504 h, 21 DAA",99.3%
